From US8785483B2, “Methods for treating COPD” (The Board of Regents of the University of Texas System, priority 2010, dated 2014)

System: JAK1
Test: Western blot of JAK1 phosphorylation in airway epithelial monolayer
Type: cell-based, human
Method: FIG. 7. AR inhibition prevents IL-13-induced phosphorylation of JAK-1, ERK1/2 and STAT-6 in airway epithelial monolayer. The ciliated monolayer of airway cells at ALI was treated with AR inhibitor for 24 h and stimulated with IL-13 for different time periods as indicated. At the end of incubation, cells were lysed and cell lysate was subjected to western blotting using antibodies against phosphorylated and nonphosphorylated JAK-1, ERK1/2 and STAT-6 to analyze the activation of these signaling proteins. A representative blot is shown (n=4). #p<0.001 vs Control; *p<0.01 and **p<0.001 vs IL-13. For air-liquid interface (ALI) culture, SAEC were seeded at 8.5×10^4 cells/12-mm-diameter PET transparent insert with […] pores (12-well millicell culture insert; Millipore) and pre-coated with rat tail collagen type-1 (Sigma-Aldrich). The cells were grown submerged in the differentiation medium as described earlier by Zhen et al. (Am J Respir Cell Mol Biol 36: 244-253, 2007). […] Protein levels were determined using Bradford reagent (Biorad, Hercules, Calif.). […] The blots were then washed, exposed to HRP-conjugated secondary antibodies (1:5,000 dilution) for 1 h, and the antigen-antibody complex was detected by enhanced chemiluminescence (Amersham Pharmacia Biotech, Piscataway, N.J., USA). […]

## NC(=O)[C@@H]1C[C@]2(NC(=O)NC2=O)c2cc(F)ccc2O1 [fidarestat, (2S,4S)-2-aminoformyl-6-fluoro-spiro[chroman-4,4′-imidazolidine]-2′,5′-dione]
ALI monolayer, AR inhibitor 24 h prior to IL-13
  IL-13-induced phosphorylation of JAK1: decreased significantly
AR inhibitor alone, no IL-13
  basal phosphorylation of JAK1: decreased
